{"source": "patent US11890349B2", "about": "“Treatment of inflammatory diseases with inhibitors of C5A activity” (InflaRx GmbH, priority 2017, dated 2024)", "molecules": {"B1": {"name": "IFX-1: chimeric monoclonal IgG4 antibody which specifically binds to the soluble human complement split product C5a (antibody, V domains shown)", "VH": "QVQLQQSGPQLVRPGTSVKISCKASGYSFTTFWMDWVKQRPGQGLEWIGRIDPSDSESRLDQRFKDRATLTVDKSSSTVYMQLSSPTSEDSAVYYCARGNDGYYGFAYWGQGTLVTVSS", "VL": "DIVLTQSPASLAVSLGQRATISCKASQSVDYDGDSYMKWYQQKPGQPPKLLIYAASNLQSGIPARFSGSGSGTDFTLNIHPVEEEDAATYYCQQSNEDPYTFGGGTKLEIK"}}, "key": {"[1]": {"system": "CD11b upregulation on the surface of neutrophils", "test": "Human CD11b potency assay (flow cytometric assay) with HS patient plasma or rhC5a-spiked human plasma", "type": "cell-based", "source_text": "Accumulation of neutrophils at the site of inflammation is dependent on the expression of adhesion molecules, including CD11b (also known as integrin alpha M) (Larson and Springer, 1990; Carlos and Harlan, 1990). Upregulation and mobilizing of CD11b/CD18 from intracellular pools to the surface of neutrophils is essential for the rolling action and migration of human neutrophils (Smith et al., 1989). Enhanced expression of CD11b/CD18 therefore reflects an inflammatory triggering event. The human CD11b assay is conducted using flow cytometry to detect FITC-conjugated anti-CD11b antibody on the surface of neutrophils. Activated complement products, especially elevated endogenous C5a (eC5a) in HS patient plasma samples can strongly upregulate CD11b expression through the binding of C5a to its receptor C5aR (CD88) on neutrophils. Consequently, blockade of the C5a-C5aR axis is expected to abolish or attenuate CD11b upregulation on the surface of neutrophils.\nTwo patient plasma samples Pat. 088 and Pat. 092 (5 μL) were incubated with fresh human blood (60 μL, as source of neutrophils) in the absence or presence of C5a-C5aR axis blockers (anti-C5a antibody IFX-1, anti-C5aR antibodies clone S5/1 and clone 7H110, C5aR antagonist PMX-53, and C5aR inhibitor Avacopan; 10 μL) in a total volume of 100 μL. Two control plasma samples (Ctrl 009 and Ctrl 010, 5 μL) prepared according to the procedure applied to the patient samples served as controls for unspecific activation. Blood with only saline (40 μL) or normal human plasma pool (huPP 5 μL+saline 35 μL) served as the non-stimulated control to define the baseline expression of CD11b. Blood sample with normal human plasma pool and spiked with recombinant human C5a (rhC5a) mimicked the stimulated condition. All samples were incubated at 37° C. for 20 min to activate CD11b upregulation. After cooling on ice, 2 μL of FITC-conjugated anti-mouse CD11b antibody was added to the samples. The labeled samples were kept on ice in the dark for another 30-min to minimize the background signal. Red blood cells were then lysed with 1×FACS Lysing solution at room temperature for 10 min. 2 mL Staining buffer was used to wash the remaining cells twice. After centrifugation at 2500 rpm for 3 min, cells were resuspended in 0.5 mL Staining buffer and ready for FACS analysis. A gate was set on the FSC vs. SSC plot to allow analysis only of cells with the size of neutrophils.\nThe percentage of blocking activity (BA) of the C5a-C5aR axis blockade test material was calculated using the formula below. Where MFI is the mean fluorescence intensity emitted from the CD11b-bound FITC on neutrophils. BA (%)=(MFIPatient plasma−MFITest material spiked patient plasma)÷(MFIPatient plasma−MFIhuPP)×100 b) Statistical Analysis"}, "[2]": {"system": "recombinant human C5a (rhC5a)-induced CD11b upregulation on blood neutrophils", "test": "CD11b assay in human whole blood stimulated with rhC5a", "type": "cell-based", "method": "Human whole blood was stimulated with rhC5a or ZAP. To test the blocking activity of IFX-1 and irrelative control IgG4 on rhC5a, the antibodies were diluted to final Ab/Ag molar ratios of 1:1 and 0.5:1. To test the blocking activity of IFX-1 on eC5a, IFX-1 was diluted to reach final Ab/Ag molar ratios of approximately 4:1/3:1/2:1/1:1/0.5:1. Blood only with buffer served as a non-stimulation control to assess the baseline CD11b expression. Blood with antibody alone was used to determine the effects on CD11b expression of the antibody under non-stimulated condition. The complete mixture (Ab/Ag/blood) was incubated at 37° C. for 20 min to evaluate C5a-induced up-regulation of CD11b. After addition of anti-mouse CD11b:FITC samples were incubated for 30 min on ice to minimize background staining. Granulocytes were gated and mean fluorescence intensity (MFI) of FITC labeled (CD11b expressing) granulocytes was examined by flow cytometer.\nHuman blood was stimulated with rhC5a or zymosan A, and the complete mixture (Ab/Ag/blood) was incubated at 37° C. for 20 min to stimulate the C5a-induced up-regulation of CD11b. […] After lysis, cells were analyzed using flow cytometer. On the FSC/SSC dot-plot, granulocytes were gated and mean fluorescence intensity (MFI) of FITC labeled (CD11b expressing) granulocytes was examined for the whole sample set. […]"}, "[3]": {"system": "patients with moderate to severe hidradenitis suppurativa", "experimental": "Primary objective of the trial was to explore the safety and tolerability of IFX-1 administered over 8 weeks. Secondary objectives of the trial were to assess the pharmacokinetics and pharmacodynamics of IFX-1 as well as to generate preliminary data on the efficacy of IFX-1 on clinical endpoints (e.g., HiSCR, DLQI, VAS for disease status, VAS for pain, HS-PGA, modified Sartorius Score) to generate further hypotheses. The enrolled patients were treated with 800 mg IFX-1 twice in the first week and once a week thereafter for the total 8-week treatment; i.e. IFX-1 was administered in nine intravenous doses of 800 mg IFX-1 on days 1, 4, 8, 15, 22, 29, 36, 43, and 50. All patients were followed up for 12 additional weeks.\n• 1. Male or female patients ≥18 years old • 2. Written informed consent • 3. Diagnosis of HS for at least 1 year • 4. HS lesions in at least 2 distinct anatomic areas, one of which is Hurley Stage II or III • 5. Total AN (abscesses and nodules) count ≥3 • 6. Patients with either primary or secondary failure of biological treatment or are not eligible for treatment with other biologicals • NOTE: a primary failure is defined as an at least 12 week treatment with a biological compound without effect and a secondary failure as achieving an initial response after at least 12 week treatment with a biological compound followed by a relapse. • 7. […]"}, "[4]": {"system": "HS plasma-induced CD11b upregulation on blood neutrophils", "test": "CD11b upregulation on blood neutrophils induced by HS plasma (human whole blood model)", "type": "cell-based", "settings": "HS plasma samples Pat. 088 and Pat. 092, FIG. 6", "source_text": "To determine the role of C5a in the HS plasma sample on the neutrophil activation, the HS plasma samples with high levels of C5a were chosen and assessed by employing the human whole blood model. […] Recombinant human C5a was used as the positive control, while the plasma from healthy volunteers was chosen as the negative control. […] From these novel results the inventors concluded that blockade of C5a in HS patients is sufficient to achieve a strong suppression on neutrophil activation."}, "human C5a": {"target": "T1, human C5a (Homo sapiens, UniProt P01031)", "T1 sequence (P01031 678-751 limits assumed)": "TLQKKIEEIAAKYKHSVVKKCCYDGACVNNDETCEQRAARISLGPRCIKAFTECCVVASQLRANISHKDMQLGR", "test": "In vitro blocking of C5a-induced biological effects", "type": "cell-based", "settings": "experimental in vitro settings"}, "[5]": {"system": "zymosan-induced generation of IL-8 in human whole blood", "test": "Cytokine IL-8 ELISA after zymosan A stimulation of human whole blood", "type": "cell-based", "settings": "various concentrations of zymosan A, FIG. 4", "method": "Human IL-8 ELISA was performed as recommended in the instruction manual under section “Assay procedure” (eBioscience Inc., San Diego, CA). Briefly, coating was performed overnight at 4° C. using 100 μl 1× capture antibody. Plates were blocked using 200 μl 1× assay diluents at RT for 1 h. Standard stock solutions were diluted with 1× assay diluents to the desired concentration, followed by 6 serial 1:2 dilutions. Sample supernatants were diluted as required in 1× assay diluents. According to the “Assay procedure”, 100 μl of standard dilutions and sample dilutions were added to the coated plate and incubated at RT for 1 h, followed by the incubation with 100 μl 1× detection antibody (RT, 1 h) and 100 μl 1× avidin-HRP (RT, 30 min). Color development was performed with 100 μl TMB substrate solution at RT for 10 min in the dark and was terminated with 100 μl stop solution. Absorbance was read out within 30 min using the plate reader at 450 nm. Zero standard value (blank) was subtracted from all standards and samples. Cytokine concentration of samples was calculated using a log(x)/log(y) standard curve of included standard samples.\nIn the same experimental set-up, IL-8 levels were measured and used to assess the inflammatory response. IL-8 concentrations after various doses of zymosan A stimulation ranged from 458 pg/ml to 3218 pg/ml in the absence of IFX-1. […]"}, "human": {"system": "human", "settings": "in vivo"}, "cynomolgus monkey": {"system": "cynomolgus monkey", "test": "Nonclinical tests and studies including GLP toxicology studies in cynomolgus monkey", "settings": "in vitro/ex vivo tests and in vivo studies incl. GLP toxicology in cynomolgus monkey"}, "[6]": {"settings": "HS patient plasma Pat. 088, test material 50 nM"}, "[7]": {"settings": "HS patient plasma Pat. 088, test material 20 μM"}, "[8]": {"settings": "HS patient plasma Pat. 092, test material 50 nM"}, "[9]": {"settings": "HS patient plasma Pat. 092, test material 20 μM"}, "[10]": {"settings": "HS patient plasma Pat. 088, test material 100 μM"}, "[11]": {"settings": "HS patient plasma Pat. 088, test material 500 μM"}, "[12]": {"settings": "HS patient plasma Pat. 092, test material 100 μM"}, "[13]": {"settings": "HS patient plasma Pat. 092, test material 500 μM"}, "[14]": {"settings": "HS patient plasma Pat. 088, test material 20 nM"}, "[15]": {"settings": "HS patient plasma Pat. 092, test material 20 nM"}}}
{"molecule": "Ac-Phe-cyclo(Orn-Pro-D-Cha-Trp-Arg) [PMX-53]", "values": [{"measurement": "CD11b upregulation induced by HS patient plasma samples as well as by rhC5a", "setting": "[1]; 20 μM, FIG. 9B", "result": "completely abrogated"}, {"measurement": "Blocking activity (%)", "setting": "[1]; [6]", "result": 55.46, "unit": "%"}, {"measurement": "CD11b (mean MFI)", "setting": "[1]; [6]", "result": 4728.5}, {"measurement": "Blocking activity (%)", "setting": "[1]; [7]", "result": 104.48, "unit": "%"}, {"measurement": "CD11b (mean MFI)", "setting": "[1]; [7]", "result": 2027.5}, {"measurement": "Blocking activity (%)", "setting": "[1]; [8]", "result": 56.69, "unit": "%"}, {"measurement": "CD11b (mean MFI)", "setting": "[1]; [8]", "result": 4657.5}, {"measurement": "Blocking activity (%)", "setting": "[1]; [9]", "result": 108.59, "unit": "%"}, {"measurement": "CD11b (mean MFI)", "setting": "[1]; [9]", "result": 1912.5}, {"measurement": "CD11b (mean MFI)", "setting": "[1]; huPP + rhC5a (20 nM), test material 50 nM", "result": 4235.5}, {"measurement": "CD11b (mean MFI)", "setting": "[1]; huPP + rhC5a (20 nM), test material 20 μM", "result": 1851}, {"measurement": "CD11b (mean MFI)", "setting": "[1]; huPP, non-stimulated, test material 50 nM", "result": 2053.5}, {"measurement": "CD11b (mean MFI)", "setting": "[1]; huPP, non-stimulated, test material 20 μM", "result": 2218.5}, {"measurement": "Blocking activity (%)", "setting": "[1]; rhC5a-spiked huPP (20 nM rhC5a), test material 50 nM", "result": 50.30, "unit": "%"}, {"measurement": "Blocking activity (%)", "setting": "[1]; rhC5a-spiked huPP (20 nM rhC5a), test material 20 μM", "result": 107.88, "unit": "%"}]}
{"molecule": "Cc1ccc(NC(=O)[C@H]2CCCN(C(=O)c3c(C)cccc3F)[C@H]2c2ccc(NC3CCCC3)cc2)cc1C(F)(F)F", "note": "[Avacopan, (2R,3S)-2-[4-(cyclopentylamino)phenyl]-1-(2-fluoro-6-methylbenzoyl)-N-[4-methyl-3-(trifluoromethyl)phenyl]piperidine-3-carboxamide]", "values": [{"measurement": "CD11b upregulation induced by HS patient plasma", "setting": "[1]; 500 μM, FIG. 11", "result": "completely blocked"}, {"measurement": "Blocking activity (%)", "setting": "[1]; [10]", "result": 77.35, "unit": "%"}, {"measurement": "CD11b (mean MFI)", "setting": "[1]; [10]", "result": 5289}, {"measurement": "Blocking activity (%)", "setting": "[1]; [11]", "result": 104.57, "unit": "%"}, {"measurement": "CD11b (mean MFI)", "setting": "[1]; [11]", "result": 3027}, {"measurement": "Blocking activity (%)", "setting": "[1]; [12]", "result": 79.60, "unit": "%"}, {"measurement": "CD11b (mean MFI)", "setting": "[1]; [12]", "result": 5000}, {"measurement": "Blocking activity (%)", "setting": "[1]; [13]", "result": 104.17, "unit": "%"}, {"measurement": "CD11b (mean MFI)", "setting": "[1]; [13]", "result": 3081.5}]}
{"molecule": "B1", "values": [{"measurement": "blocking of rhC5a-stimulated CD11b up-regulation on human neutrophils", "setting": "[2]; human whole blood, Ab/Ag molar ratios 1:1 and 0.5:1, FIG. 1", "result": "completely blocked"}, {"measurement": "blocking of CD11b up-regulation stimulated by rhC5a", "setting": "[2]; positive control of the zymosan A whole blood experiment, FIG. 3", "result": 100, "unit": "%"}, {"measurement": "HiSCR responders", "setting": "[3]; out of 11 patients treated up to Day 56, 800 mg i.v.", "result": 8, "unit": "patients"}, {"measurement": "HiSCR response rate", "setting": "[3]; treatment period of 8 weeks, Day 56, 95% confidence interval 43% to 91%", "result": 72.7, "unit": "%"}, {"measurement": "suppression of CD11b upregulation induced by HS plasma", "setting": "[4]", "result": 100, "unit": "%"}, {"measurement": "efficiency of neutralizing the effects of 2 molecules C5a by one antibody", "setting": "human C5a", "result": "~100", "unit": "%"}, {"measurement": "CD11b upregulation by rhC5a and HS patient plasma samples (Pat. 088 and Pat. 092)", "setting": "[1]; 20 nM, FIG. 10", "result": "completely abolish"}, {"measurement": "Blocking activity (%)", "setting": "[1]; [14]", "result": 101.74, "unit": "%"}, {"measurement": "CD11b (mean MFI)", "setting": "[1]; [14]", "result": 2209}, {"measurement": "Blocking activity (%)", "setting": "[1]; [15]", "result": 103.70, "unit": "%"}, {"measurement": "CD11b (mean MFI)", "setting": "[1]; [15]", "result": 2147}, {"measurement": "CD11b (mean MFI)", "setting": "[1]; huPP + rhC5a (20 nM), test material 20 nM", "result": 2067}, {"measurement": "CD11b (mean MFI)", "setting": "[1]; huPP, non-stimulated, test material 20 nM", "result": 2352}, {"measurement": "Blocking activity (%)", "setting": "[1]; rhC5a-spiked huPP (20 nM rhC5a), test material 20 nM", "result": 104.29, "unit": "%"}, {"measurement": "reduction rate of IL-8 generation", "setting": "[5]", "result": "up to 54%"}, {"measurement": "safety laboratory parameters, vital signs and ECG parameters", "setting": "human", "result": "no clinically relevant time or dose-related changes"}, {"measurement": "toxicological or safety concerns in nonclinical tests and studies", "setting": "cynomolgus monkey", "result": "None of the conducted nonclinical tests and studies revealed any toxicological or safety concerns"}]}
